Where a SMILES comes first, the peptide text is derived from it. Bridges are numbered along the chain shown (N, C = ends). [ ]: non-standard residue; d: D form. The star is where a group is joined. NαAmidinoTrp = N=C(N)N[C@@H](Cc1c[nH]c2ccccc12)C(=O)*; NMeW = CN[C@@H](Cc1c[nH]c2ccccc12)C(=O)O; Hyp = O=C(O)[C@@H]1C[C@@H](O)CN1; Pen = CC(C)(S)[C@H](N)C(=O)O; Tle = CC(C)(C)[C@H](N)C(=O)O; dDab = NCC[C@@H](N)C(=O)O; Orn = NCCC[C@H](N)C(=O)O; Dab = NCC[C@H](N)C(=O)O; dAze = O=C(O)[C@H]1CCN1; Sar = CNCC(=O)O
Tests used:
Format in all cases: cell-based
[1] = system: human red blood cells (hRBC); assay: Hemolysis of human red blood cells; details: red cells of human, 1 h
How it was run: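 Washed fresh human erythrocytes (20% v/v, ~0.9×10^9 cells/mL final) were incubated with peptides at 100 μg/mL for 1 h at 37 °C with shaking. Supernatant OD540 measured; hemolysis expressed as % of 2.5% Triton X-100 lysis, with PBS/0.001% acetic acid as 0%.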

[2] = system: Pseudomonas aeruginosa ATCC 27853; details: ATCC 27853
How it was run: (§1)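 Using the CLSI reference method, each strain at approx. 10^6 CFU/mL was exposed to serially diluted peptide in MH-II broth with 0.002% P-80. After 18-20 h at 35° C, the lowest concentration showing no visible growth gave the MIC.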

[3] = system: Klebsiella pneumoniae SSI #3010; details: SSI #3010
How it was run: as §1

[4] = system: Escherichia coli ATCC 25922; details: ATCC 25922
How it was run: as §1

[5] = system: Acinetobacter baumannii 872842; details: 872842
Escherichia coli 926415 = details: 926415
[6] = system: Klebsiella pneumoniae 968733; details: 968733
[7] = system: Acinetobacter baumannii DSM 30008; details: DSM 30008
How it was run: as §1

SMILES | Hemolysis at 100 μg/mL ([1]; 100 μg/mL) [%] | Pseudomonas aeruginosa ATCC 27853 MIC [2] [µg/mL] | Klebsiella pneumoniae SSI #3010 MIC [3] [µg/mL] | Escherichia coli ATCC 25922 MIC [4] [µg/mL] | Acinetobacter baumannii 872842 MIC [5] [µg/mL] | Escherichia coli 926415 MIC (Escherichia coli 926415) [µg/mL] | Klebsiella pneumoniae 968733 MIC [6] [µg/mL] | Acinetobacter baumannii DSM 30008 MIC [7] [µg/mL] | Hemolysis at 100 μg/mL [1]; 100 [%]
CC(C)C[C@@H]1NC(=O)[C@H](CCCNC(=N)N)NC(=O)[C@@H](CCN)NC(=O)[C@H](C(C)C)NC(=O)[C@@H](NC(=O)[C@H](Cc2ccc(O)cc2)NC(=O)[C@H](CO)NC(=O)[C@@H](N)Cc2c[nH]c3ccccc23)CSSC[C@@H](C(=O)N[C@@H](Cc2ccc(O)cc2)C(=O)N[C@@H](CC(N)=O)C(=O)N(C)CC(=O)N[C@@H](CCN)C(=O)N[C@H](C(=O)N[C@@H](CCN)C(=O)N[C@H]2CCNC(=O)[C@H]([C@@H](C)O)NC(=O)[C@H](CCN)NC(=O)[C@H](CCN)NC(=O)[C@H](CC(C)C)NC(=O)[C@@H](CC(C)C)NC(=O)[C@H](CCN)NC2=O)[C@@H](C)O)NC1=O [Ex. 169] (H-WSYCV[dDab]RLCYN[Sar][Dab]T[Dab][Dab][Dab][dL]L[Dab][Dab]T; disulfide 4-9; lactam 16-C) | 1 | 1 | 0.25 | 0.5 | 1 | 0.5 | 2 | 1 | –
CC[C@H](C)[C@@H]1NC(=O)[C@@H]2CCCN2C(=O)[C@H]2CCCN2C(=O)[C@H](Cc2ccc(O)cc2)NC(=O)[C@@H](NC(=O)[C@@H](NC(=O)[C@H](CCN)NC(=O)[C@@H](N)CC(C)C)C(C)C)CSSC[C@@H](C(=O)N[C@@H](Cc2ccc(O)cc2)C(=O)N[C@@H](CCN)C(=O)N(C)CC(=O)N[C@@H](CCN)C(=O)N[C@H](C(=O)N[C@@H](CCN)C(=O)N[C@H]2CCNC(=O)[C@H]([C@@H](C)O)NC(=O)[C@H](CCN)NC(=O)[C@H](CCN)NC(=O)[C@H](CC(C)C)NC(=O)[C@@H](CC(C)C)NC(=O)[C@H](CCN)NC2=O)[C@@H](C)O)NC1=O [Ex. 170] (H-L[Dab]VCY[dP]PICY[Dab][Sar][Dab]T[Dab][Dab][Dab][dL]L[Dab][Dab]T; disulfide 4-9; lactam 16-C) | 1 | 0.5 | 1 | 0.5 | 0.125 | 0.25 | 0.5 | 1 | –
CC(=O)N[C@@H](CC(C)C)C(=O)N[C@@H](CO)C(=O)N[C@H](C(=O)N[C@H]1CSSC[C@@H](C(=O)N[C@@H](Cc2ccc(O)cc2)C(=O)N[C@@H](CC(N)=O)C(=O)N[C@@H](CCCN)C(=O)N[C@H](CCN)C(=O)N[C@@H](CCN)C(=O)N[C@@H](CCN)C(=O)N[C@H]2CCNC(=O)[C@H]([C@@H](C)O)NC(=O)[C@H](CCN)NC(=O)[C@H](CCN)NC(=O)[C@H](CC(C)C)NC(=O)[C@@H](Cc3ccccc3)NC(=O)[C@H](CCN)NC2=O)NC(=O)[C@H](CC(C)C)NC(=O)[C@H](CCCNC(=N)N)NC(=O)[C@@H](CCN)NC(=O)[C@H](C(C)C)NC1=O)C(C)(C)C [Ex. 171] (Ac-LS[Tle]CV[dDab]RLCYN[Orn][dDab][Dab][Dab][Dab][Dab][dF]L[Dab][Dab]T; disulfide 4-9; lactam 16-C) | 2 | 0.5 | 1 | 1 | 2 | 2 | 4 | 2 | –
CC(C)C[C@@H]1NC(=O)[C@@H](CC(C)C)NC(=O)[C@H](CCN)NC(=O)[C@@H](NC(=O)[C@H](CCN)NC(=O)[C@H](CCN)NC(=O)[C@H](CCN)NC(=O)CNC(=O)[C@H](CCN)NC(=O)[C@H](Cc2ccc(O)cc2)NC(=O)[C@@H]2CCNC(=O)C[C@H](NC(=O)[C@@H](NC(=O)[C@H](CCN)NC(=O)[C@H](Cc3c[nH]c4ccccc34)NC(=N)N)C(C)C)C(=O)N[C@@H](Cc3ccc(O)cc3)C(=O)N3CCC[C@@H]3C(=O)N3CCC[C@H]3C(=O)N[C@@H](C(C)C)C(=O)N2)CCNC(=O)[C@H]([C@@H](C)O)NC(=O)[C@H](CCN)NC(=O)[C@H](CCN)NC1=O [Ex. 172] (NαAmidinoTrp-[Dab]VDY[dP]PV[Dab]Y[Dab]G[Dab][Dab][Dab][Dab][Dab][dL]L[Dab][Dab]T; lactam 3-8, 15-C) | – | 0.125 | 0.125 | 0.0625 | 0.25 | 0.5 | 0.5 | 0.0625 | 1
CC(C)C[C@@H]1NC(=O)[C@@H](CC(C)C)NC(=O)[C@H](CCN)NC(=O)[C@@H](NC(=O)[C@H](CCN)NC(=O)[C@@H](NC(=O)[C@H](CCN)NC(=O)CNC(=O)[C@H]2NC(=O)[C@H](Cc3ccc(O)cc3)NC(=O)[C@H](CO)NC(=O)[C@H](CC(C)C)NC(=O)[C@@H]3CCCN3C(=O)[C@H]3CCCN3C(=O)[C@H](CO)NC(=O)[C@H](C)NC(=O)[C@H](C(C)C)NC(=O)[C@@H](NC(=O)[C@H](Cc3c[nH]c4ccccc34)NC(=N)N)CSSC2(C)C)[C@@H](C)O)CCNC(=O)[C@H]([C@@H](C)O)NC(=O)[C@H](CCN)NC(=O)[C@H](CCN)NC1=O [Ex. 173] (NαAmidinoTrp-CVAS[dP]PLSY[Pen]G[Dab]T[Dab][Dab][Dab][dL]L[Dab][Dab]T; disulfide 1-10; lactam 15-C) | 1 | 0.5 | 0.125 | 0.125 | 0.25 | 0.5 | 1 | 0.125 | –
CN[C@@H](Cc1c[nH]c2ccccc12)C(=O)N[C@H]1CSSC[C@@H](C(=O)N(C)CC(=O)N[C@@H](CCN)C(=O)N[C@H](C(=O)N[C@@H](CCN)C(=O)N[C@H]2CCNC(=O)[C@H]([C@@H](C)O)NC(=O)[C@H](CCN)NC(=O)[C@H](CCN)NC(=O)[C@H](CC(C)C)NC(=O)[C@@H](CC(C)C)NC(=O)[C@H](CCN)NC2=O)[C@@H](C)O)NC(=O)[C@H](Cc2ccc(O)cc2)NC(=O)[C@H]([C@@H](C)O)NC(=O)[C@H](C(C)C)NC(=O)[C@@H]2C[C@@H](O)CN2C(=O)[C@@H](C)NC(=O)[C@H]([C@@H](C)O)NC(=O)[C@H](C)NC(=O)[C@H](C(C)C)NC1=O [Ex. 175] (H-[NMeW]CVAT[dA][Hyp]VTYC[Sar][Dab]T[Dab][Dab][Dab][dL]L[Dab][Dab]T; disulfide 2-11; lactam 16-C) | <1 | 0.25 | 0.0625 | 0.0625 | 1 | 0.5 | 0.5 | 0.0625 | –
CN[C@@H](Cc1c[nH]c2ccccc12)C(=O)N[C@@H](CCN)C(=O)N[C@H](C(=O)N[C@H]1CC(=O)NCC[C@@H](C(=O)N[C@@H](Cc2ccc(O)cc2)C(=O)N[C@@H](CCN)C(=O)N(C)CC(=O)N[C@@H](CCN)C(=O)N[C@H](C(=O)N[C@@H](CCN)C(=O)N[C@H]2CCNC(=O)[C@H]([C@@H](C)O)NC(=O)[C@H](CCN)NC(=O)[C@H](CCN)NC(=O)[C@H](CC(C)C)NC(=O)[C@@H](CC(C)C)NC(=O)[C@H](CCN)NC2=O)[C@@H](C)O)NC(=O)[C@H](C(C)C)NC(=O)[C@@H]2CCCN2C(=O)[C@H]2CCN2C(=O)[C@H]([C@@H](C)O)NC1=O)C(C)(C)C [Ex. 176] (H-[NMeW][Dab][Tle]DT[dAze]PV[Dab]Y[Dab][Sar][Dab]T[Dab][Dab][Dab][dL]L[Dab][Dab]T; lactam 4-9, 16-C) | – | 0.25 | 0.0625 | 0.03125 | 0.5 | 0.0625 | 0.25 | 0.03125 | <1
CC(C)C[C@@H]1NC(=O)[C@@H](Cc2ccccc2)NC(=O)[C@H](CCN)NC(=O)[C@@H](NC(=O)[C@H](CCN)NC(=O)[C@@H](CCN)NC(=O)[C@@H](NC(=O)[C@H](CCCN)NC(=O)[C@@H]2CSSC[C@H](NC(=O)[C@@H](N)Cc3c[nH]c4ccccc34)C(=O)N[C@@H](C(C)C)C(=O)N[C@@H](C)C(=O)N[C@@H](CO)C(=O)N3CCC[C@@H]3C(=O)N3CCC[C@H]3C(=O)N[C@@H](C(C)C)C(=O)N[C@@H](CO)C(=O)N[C@@H](Cc3ccc(O)cc3)C(=O)N2)[C@@H](C)O)CCNC(=O)[C@H]([C@@H](C)O)NC(=O)[C@H](CCNC(=O)[C@@H](N)CCCNC(=N)N)NC(=O)[C@H](CCN)NC1=O [Ex. 177] (H-WCVAS[dP]PVSYC[Orn]T[dDab][Dab][Dab][Dab][dF]L[Dab][Dab](Arg)T; disulfide 2-11; lactam 16-C) | 1.4 | 0.5 | 1 | 1 | 2 | 2 | 2 | 1 | –

— patent publication US10829520B2, “Beta-hairpin peptidomimetics” (POLYPHOR AG, priority 2015, dated 2020)
